Experimental data: patent US11382956B2, “Amylin analogues” (Zealand Pharma A/S, priority 2016, dated 2022)
Numbered stars: 1 amine (or outer) side, 2 acyl side, 3 side chain; on linkers, the order of the positions; unused ones are H or OH. Bridge positions count the residues as written; N and C are the ends. Square brackets hold non-standard residues; d marks the D form. Peptide text beside a SMILES is read from it. * marks the point of attachment. C20 diacid = O=C(O)CCCCCCCCCCCCCCCCCCC(=O)*; γGlu = O=C(O)[C@H](CCC(=O)[*:2])N[*:1]; Hyp = O=C(O)[C@@H]1C[C@@H](O)CN1; NMeI = CC[C@H](C)[C@H](NC)C(=O)O; Aad = N[C@@H](CCCC(=O)O)C(=O)O; Orn = NCCC[C@H](N)C(=O)O; Sar = CNCC(=O)O

Key:
[1] = target: T1, recombinant human amylin 3 receptor (hAMYR3) (Homo sapiens, UniProt O60896+P30988); assay: hAMYR3 cAMP assay (AlphaScreen) in 1321N1 cells; type: cell-based; conditions: cAMP formation, 45 min stimulation
T1 construct: host or cells: human astrocytoma cell line 1321N1
T1 sequence (P30988 25-474): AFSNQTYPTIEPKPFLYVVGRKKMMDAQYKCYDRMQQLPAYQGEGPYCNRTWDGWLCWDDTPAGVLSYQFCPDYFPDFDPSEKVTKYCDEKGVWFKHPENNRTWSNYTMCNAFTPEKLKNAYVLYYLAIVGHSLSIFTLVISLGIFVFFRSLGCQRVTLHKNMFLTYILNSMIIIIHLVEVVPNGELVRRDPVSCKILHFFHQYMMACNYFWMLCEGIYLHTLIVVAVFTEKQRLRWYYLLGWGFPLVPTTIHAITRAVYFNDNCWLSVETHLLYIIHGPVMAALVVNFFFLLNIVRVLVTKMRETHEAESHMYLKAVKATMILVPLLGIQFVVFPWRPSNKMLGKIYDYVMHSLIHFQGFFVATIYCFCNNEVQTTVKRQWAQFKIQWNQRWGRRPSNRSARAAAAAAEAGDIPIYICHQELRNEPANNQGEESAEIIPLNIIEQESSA
T1 sequence (O60896 24-148 partner): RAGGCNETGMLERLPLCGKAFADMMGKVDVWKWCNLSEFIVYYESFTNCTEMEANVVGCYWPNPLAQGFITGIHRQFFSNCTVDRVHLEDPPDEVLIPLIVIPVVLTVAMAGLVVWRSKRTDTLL
Outline: (§1)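 EC50 values come from curve fits over at least 7 peptide concentrations, with cAMP read by AlphaScreen competition after 1 h in the dark. Cells were 1321N1 lines carrying human calcitonin receptor, with RAMP3 co-expressed for AMY3, treated 45 min at room temperature in the presence of IBMX.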

[2] = Assessment of chemical stability in 40 mM buffers at 40° C. (RP-HPLC); type: physicochemical; conditions: 1 mg/mL; for % degradation after 72 h at 40° C. pH4 acetate: acetate buffer pH 4, 72 h; for % degradation after 72 h at 40° C. pH6 phosphate: phosphate buffer pH 6, 72 h; for % degradation after 72 h at 40° C. pH7 phosphate: phosphate buffer pH 7, 72 h
Outline: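 Degradation is the main-peak area-% at each time point minus that at t=0, measured by C8 reversed-phase HPLC (TFA/acetonitrile/water gradient, 220 nm). Incubation at 40° C for 3 or 14 days, 1 mg/mL peptide in 40 mM buffer at pH 4, 6 or 7.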

[3] = target: T2, recombinant human calcitonin receptor (hCT-R) (Homo sapiens, UniProt P30988); assay: hCT-R cAMP assay (AlphaScreen) in 1321N1 cells; type: cell-based; conditions: cAMP formation, 45 min stimulation
T2 construct: host or cells: human astrocytoma cell line 1321N1
T2 sequence (P30988 25-474): T1 sequence (P30988 25-474)
Outline: as §1

[4] = Assessment of physical stability: fibril formation by Thioflavin T fluorescence; type: physicochemical; design: key: FND = fibrillation not detected; FD = fibrillation detected; conditions: 1 mg/mL peptide; for Fibrillation (in buffer) pH4 acetate: 50 mM acetate buffer pH 4.0, 96 hours at 40° C.; for Fibrillation (in buffer) pH7 histidine: 50 mM histidine buffer pH 7.0, 96 hours at 40° C.; for Fibrillation (in buffer) pH7 phosphate: 50 mM phosphate buffer pH 7.0, 96 hours at 40° C.
Method: Solutions containing (i) 1 mg/mL of test peptide, 40 μM ThT and 50 mM phosphate (Ph) buffer (pH 7.0), (ii) 1 mg/mL of test peptide, 40 μM ThT and 50 mM histidine (His) buffer (pH 7.0), and (iii) 1 mg/mL of test peptide, 40 μM ThT and 50 mM acetate (Ac) buffer (pH 4.0), were loaded in a 96-well black fluorescence plate (clear bottom) in triplicate. Data were collected at fixed intervals of 10 min, each preceded by 300 s of automixing (agitation), over a period of 96 hours at 40° C. Physical stability is determined by measuring the fluorescence intensity over time. A significant increase in intensity is rated as fibrillation detected (FD).

CC[C@H](C)[C@@H](C(=O)N1CCC[C@H]1C(=O)N[C@@H](CO)C(=O)N[C@@H](CO)C(=O)N[C@H](C(=O)N[C@@H](CCC(=O)O)C(=O)N[C@H](C(=O)NCC(=O)N[C@@H](CO)C(=O)N[C@@H](CC(N)=O)C(=O)N[C@H](C(=O)N1C[C@H](O)C[C@H]1C(N)=O)[C@@H](C)O)C(C)C)[C@@H](C)O)N(C)C(=O)[C@H](C)NC(=O)CN(C)C(=O)[C@H](Cc1ccccc1)NC(=O)[C@H](CO)NC(=O)[C@H](CO)NC(=O)[C@H](CCCNC(=N)N)NC(=O)[C@H](CCC(N)=O)NC(=O)[C@H](CC(C)C)NC(=O)[C@H](Cc1ccccc1)NC(=O)[C@H](Cc1c[nH]cn1)NC(=O)[C@H](C)NC(=O)[C@H](CC(C)C)NC(=O)[C@H](CCCNC(=N)N)NC(=O)[C@H](CCC(=O)O)NC(=O)[C@@H](NC(=O)[C@H](C)NC(=O)[C@@H]1CCCCNC(=O)C[C@H](NC(=O)[C@H](CCCNC(=N)N)NC(=O)CC[C@H](NC(=O)CCCCCCCCCCCCCCCCCCC(=O)O)C(=O)O)C(=O)NCC(=O)N[C@@H]([C@@H](C)O)C(=O)N[C@@H](C)C(=O)N[C@@H]([C@@H](C)O)C(=O)N1)[C@@H](C)O [Compound 17, [19CD]-isoGlu-RD()GTATK()ATERLAHFLQRSSF-Gly(Me)-A-Ile(Me)-PSSTEVGSNT-Hyp-NH2] ({C20 diacid-γGlu}-RDGTATKATERLAHFLQRSSF[Sar]A[NMeI]PSSTEVGSNT[Hyp]-NH2; lactam 2-7)
EC50 [1]: 0.025 nM | % degradation after 72 h at 40° C. pH4 acetate [2]: 1.2% | % degradation after 72 h at 40° C. pH6 phosphate [2]: <1% | % degradation after 72 h at 40° C. pH7 phosphate [2]: <1% | EC50 [3]: 0.058 nM | Fibrillation (in buffer) pH4 acetate [4]: FND | Fibrillation (in buffer) pH7 histidine [4]: FND | Fibrillation (in buffer) pH7 phosphate [4]: FND

CC[C@H](C)[C@@H](C(=O)N1CCC[C@H]1C(=O)N[C@@H](CO)C(=O)N[C@@H](CO)C(=O)N[C@H](C(=O)N[C@@H](CCC(=O)O)C(=O)N[C@H](C(=O)NCC(=O)N[C@@H](CO)C(=O)N[C@@H](CC(N)=O)C(=O)N[C@H](C(=O)N1C[C@H](O)C[C@H]1C(N)=O)[C@@H](C)O)C(C)C)[C@@H](C)O)N(C)C(=O)[C@H](C)NC(=O)CN(C)C(=O)[C@H](Cc1ccccc1)NC(=O)[C@H](CO)NC(=O)[C@H](CO)NC(=O)[C@H](CCCNC(=N)N)NC(=O)[C@H](CCC(N)=O)NC(=O)[C@H](CC(C)C)NC(=O)[C@H](Cc1ccccc1)NC(=O)[C@H](CCCC(=O)O)NC(=O)[C@H](C)NC(=O)[C@H](CC(C)C)NC(=O)[C@H](CCCNC(=N)N)NC(=O)[C@H](CCC(=O)O)NC(=O)[C@@H](NC(=O)[C@H](C)NC(=O)[C@@H]1CCCNC(=O)C[C@H](NC(=O)[C@H](CCCNC(=N)N)NC(=O)CC[C@H](NC(=O)CCCCCCCCCCCCCCCCCCC(=O)O)C(=O)O)C(=O)NCC(=O)N[C@@H]([C@@H](C)O)C(=O)N[C@@H](C)C(=O)N[C@@H]([C@@H](C)O)C(=O)N1)[C@@H](C)O [Compound 21, [19CD]-isoGlu-RD()GTAT-Orn()-ATERLA-Aad-FLQRSSF-Gly(Me)-A-Ile(Me)-PSSTEVGSNT-Hyp-NH2] ({C20 diacid-γGlu}-RDGTAT[Orn]ATERLA[Aad]FLQRSSF[Sar]A[NMeI]PSSTEVGSNT[Hyp]-NH2; lactam 2-7)
EC50 [1]: 0.01 nM | % degradation after 72 h at 40° C. pH4 acetate [2]: <1% | % degradation after 72 h at 40° C. pH6 phosphate [2]: <1% | % degradation after 72 h at 40° C. pH7 phosphate [2]: <1% | EC50 [3]: 0.037 nM | Fibrillation (in buffer) pH4 acetate [4]: FND | Fibrillation (in buffer) pH7 histidine [4]: FND | Fibrillation (in buffer) pH7 phosphate [4]: FND

CC[C@H](C)[C@@H](C(=O)N[C@@H](CC(C)C)C(=O)N[C@@H](CO)C(=O)N[C@@H](CO)C(=O)N[C@H](C(=O)N[C@@H](CCC(=O)O)C(=O)N[C@H](C(=O)NCC(=O)N[C@@H](CO)C(=O)N[C@@H](CC(N)=O)C(=O)N[C@H](C(=O)N1C[C@H](O)C[C@H]1C(N)=O)[C@@H](C)O)C(C)C)[C@@H](C)O)N(C)C(=O)[C@H](C)NC(=O)CN(C)C(=O)[C@H](Cc1ccccc1)NC(=O)[C@@H](NC(=O)[C@H](C)NC(=O)[C@H](CCCNC(=N)N)NC(=O)[C@H](CCC(N)=O)NC(=O)[C@H](CC(C)C)NC(=O)[C@H](Cc1ccccc1)NC(=O)[C@H](CCCC(=O)O)NC(=O)[C@H](C)NC(=O)[C@H](CC(C)C)NC(=O)[C@H](CCCNC(=N)N)NC(=O)[C@H](CCC(=O)O)NC(=O)[C@@H](NC(=O)[C@H](C)NC(=O)[C@@H]1CCCNC(=O)C[C@H](NC(=O)[C@H](CCCNC(=N)N)NC(=O)CC[C@H](NC(=O)CCCCCCCCCCCCCCCCCCC(=O)O)C(=O)O)C(=O)NCC(=O)N[C@@H]([C@@H](C)O)C(=O)N[C@@H](C)C(=O)N[C@@H]([C@@H](C)O)C(=O)N1)[C@@H](C)O)[C@@H](C)O [Compound 25, [19CD]-isoGlu-RD()GTAT-Orn()-ATERLA-Aad-FLQRATF-Gly(Me)-A-Ile(Me)-LSSTEVGSNT-Hyp-NH2] ({C20 diacid-γGlu}-RDGTAT[Orn]ATERLA[Aad]FLQRATF[Sar]A[NMeI]LSSTEVGSNT[Hyp]-NH2; lactam 2-7)
EC50 [1]: 0.336 nM | % degradation after 72 h at 40° C. pH7 phosphate [2]: <1% | EC50 [3]: 0.844 nM | Fibrillation (in buffer) pH4 acetate [4]: FND | Fibrillation (in buffer) pH7 histidine [4]: FND | Fibrillation (in buffer) pH7 phosphate [4]: FND

CC[C@H](C)[C@@H](C(=O)N[C@@H](CC(C)C)C(=O)N[C@@H](CO)C(=O)N[C@@H](CO)C(=O)N[C@H](C(=O)N[C@@H](CCC(=O)O)C(=O)N[C@H](C(=O)NCC(=O)N[C@@H](CO)C(=O)N[C@@H](CC(N)=O)C(=O)N[C@H](C(=O)N1C[C@H](O)C[C@H]1C(N)=O)[C@@H](C)O)C(C)C)[C@@H](C)O)N(C)C(=O)[C@H](C)NC(=O)CN(C)C(=O)[C@H](Cc1ccccc1)NC(=O)[C@@H](NC(=O)CNC(=O)[C@H](CCCNC(=N)N)NC(=O)[C@H](CCC(N)=O)NC(=O)[C@H](CC(C)C)NC(=O)[C@H](Cc1ccccc1)NC(=O)[C@H](CCCC(=O)O)NC(=O)[C@H](C)NC(=O)[C@H](CC(C)C)NC(=O)[C@H](CCCNC(=N)N)NC(=O)[C@H](CCC(=O)O)NC(=O)[C@@H](NC(=O)[C@H](C)NC(=O)[C@@H]1CCCNC(=O)C[C@H](NC(=O)[C@H](CCCNC(=N)N)NC(=O)CC[C@H](NC(=O)CCCCCCCCCCCCCCCCCCC(=O)O)C(=O)O)C(=O)NCC(=O)N[C@@H]([C@@H](C)O)C(=O)N[C@@H](C)C(=O)N[C@@H]([C@@H](C)O)C(=O)N1)[C@@H](C)O)[C@@H](C)O [Compound 27, [19CD]-isoGlu-RD()GTAT-Orn()-ATERLA-Aad-FLQRGTF-Gly(Me)-A-Ile(Me)-LSSTEVGSNT-Hyp-NH2] ({C20 diacid-γGlu}-RDGTAT[Orn]ATERLA[Aad]FLQRGTF[Sar]A[NMeI]LSSTEVGSNT[Hyp]-NH2; lactam 2-7)
EC50 [1]: 0.325 nM | % degradation after 72 h at 40° C. pH4 acetate [2]: <1% | % degradation after 72 h at 40° C. pH6 phosphate [2]: <1% | % degradation after 72 h at 40° C. pH7 phosphate [2]: 1.7% | EC50 [3]: 0.521 nM | Fibrillation (in buffer) pH4 acetate [4]: FND | Fibrillation (in buffer) pH7 histidine [4]: FND | Fibrillation (in buffer) pH7 phosphate [4]: FND
